In patent US10172797B2, “Extruded extended release abuse deterrent pill” (Pharmaceutical Manufacturing Research Services, Inc., priority 2013, dated 2019):

Experiments:
[1] = Alcohol solubility tested (200 proof ethanol, 0.22 micrometer PTFE filter); type: physicochemical
Excerpt: The following table lists the relative solubility of exemplary components of a formulation. A number of different dyes are listed along with their solubility information taken from the various literature sources and tested experimentally (200 proof ethanol and filtered through a 0.22 micrometer PTFE filter).

[2] = cited from earlier work

COc1cc(S(=O)(=O)[O-])c(C)cc1N=Nc1c(O)ccc2cc(S(=O)(=O)[O-])ccc12.[Na+].[Na+] [Red #40]
Yes: Alcohol Solubility (tested) [1] | Alcohol Solubility (Literature) [2] | Water Solubility [2]

O=C1/C(=C2\Nc3ccc(S(=O)(=O)[O-])cc3C2=O)Nc2ccc(S(=O)(=O)[O-])cc21.[Na+].[Na+] [Blue #2]
Yes: Alcohol Solubility (tested) [1] | Alcohol Solubility (Literature) [2] | Water Solubility [2]

O=C([O-])C1=NN(c2ccc(S(=O)(=O)[O-])cc2)C(=O)C1N=Nc1ccc(S(=O)(=O)[O-])cc1.[Na+].[Na+].[Na+] (stereo not drawn) [Yellow #5]
Yes: Alcohol Solubility (tested) [1] | Alcohol Solubility (Literature) [2] | Water Solubility [2]

CCN(Cc1cccc(S(=O)(=O)[O-])c1)c1ccc(C(=C2C=CC(=[N+](CC)Cc3cccc(S(=O)(=O)[O-])c3)C=C2)c2ccccc2S(=O)(=O)[O-])cc1.[Na+].[Na+] [Blue #1]
Yes: Alcohol Solubility (tested) [1] | Alcohol Solubility (Literature) [2] | Water Solubility [2]
